# Patent publication US6670363B1, “Azole compounds as therapeutic agents for fungal infections” (Ranbaxy Laboratories Limited, priority 2000, dated 2003)
# Experiments:
# [1] = tested on: Candida; experiment: In vitro MIC, NCCLS M27A, Candida species; format: cell-based; design: MIC, Candida albicans 1.549 / MIC, Candida albicans Y-01-19 / MIC, C. krusei 766-1 / MIC, C. krusei Q. C / MIC, Candida tropicalis ATCC / MIC, C. glabrata 90030: unit not given beside the values; MIC, Candida albicans A 26 / MIC, C. parapsilosis Q. C.: unit not given here; conditions: for MIC, C. glabrata 90030: C. glabrata strain 90030; for MIC, C. krusei 766-1: C. krusei strain 766-1; for MIC, C. krusei Q. C: C. krusei strain Q. C; for MIC, C. parapsilosis Q. C.: C. parapsilosis strain Q. C.; for MIC, Candida albicans 1.549: Candida albicans strain 1.549; for MIC, Candida albicans A 26: Candida albicans strain A 26; for MIC, Candida albicans Y-01-19: Candida albicans strain Y-01-19
# [2] = tested on: Histoplasma capsulatum; format: cell-based
# [3] = tested on: A. fumigatus s 1008; experiment: In vitro MIC, NCCLS M38P broth method (RPMI 1640/MOPS pH7), Aspergillus fumigatus; format: cell-based; conditions: A. fumigatus strain 1008
# [4] = tested on: Cryptococcus neoformans; experiment: In vitro MIC, NCCLS M27A, Cryptococcus neoformans; format: cell-based; design: MIC, C. neoformans I: unit not given beside the values; MIC, C. neoformans M 106: unit not given here; conditions: for MIC, C. neoformans I: C. neoformans strain I; for MIC, C. neoformans M 106: C. neoformans strain M 106
SMILES,melting point,"MIC, C. glabrata 90030 [1]","MIC, C. krusei 766-1 [1]","MIC, C. krusei Q. C [1]","MIC, C. parapsilosis Q. C. [1]","MIC, Candida albicans 1.549 [1]","MIC, Candida albicans A 26 [1]","MIC, Candida albicans Y-01-19 [1]","MIC, Candida tropicalis ATCC [1]","MIC, H. capsulatum [2]","MIC, A. fumigatus 1008 [3]","MIC, C. neoformans I [4]","MIC, C. neoformans M 106 [4]"
"O=c1n(-c2ccc(N3CCN(c4ccc(F)c(F)c4F)CC3)cc2)cnn1CC(O)(Cn1cncn1)c1ccc(F)cc1F (stereo not drawn) [Compound 63, 2-[2-(2,4-Difluorophenyl)-2-hydroxy-3-(1H-1,2,4-triazol-1-yl)propyl]-4-{4-[4-(2,3,4-trifluorophenyl)-1-piperazinyl]phenyl}-3-(2H,4H)-1,2,4-triazolone]",186 to 187 °C,0.50,8.00,0.25,<0.03,0.06,<0.03,0.12,<0.03,< 0.03 µg/mL,>16,<0.03,<0.03
"O=c1n(-c2ccc(N3CCN(c4ccccc4F)CC3)cc2)cnn1CC(O)(Cn1cncn1)c1ccc(F)cc1F (stereo not drawn) [Compound 62, 2-[2-(2,4-Difluorophenyl)-2-hydroxy-3-(1H-1,2,4-triazol-1-yl)propyl]-4-{4-[4-(2-fluorophenyl)-1-piperazinyl]phenyl}-3-(2H,4H)-1,2,4-triazolone]",74 to 76 °C,1.00,2.00,0.50,<0.03,4.00,<0.03,0.50,<0.03,< 0.03 µg/mL,16.00,<0.03,0.12
"O=c1n(-c2ccc(N3CCN(c4cccc(Cl)c4)CC3)cc2)cnn1CC(O)(Cn1cncn1)c1ccc(F)cc1F (stereo not drawn) [Compound 57, 2-[2-(2,4-Difluorophenyl)-2-hydroxy-3-(1H-1,2,4-triazol-1-yl)propyl]-4-{4-[4-(3-chlorophenyl)-1-piperazinyl]phenyl}-3-(2H,4H)-1,2,4-triazolone]",177 to 178 °C,0.25,0.50,0.25,<0.03,0.25,<0.03,0.12,<0.03,0.06 µg/mL,>16,<0.03,<0.03
"COc1ccc(N2CCN(c3ccc(-n4cnn(CC(O)(Cn5cncn5)c5ccc(F)cc5F)c4=O)cc3)CC2)cc1 (stereo not drawn) [Compound 41, 2-[2-(2,4-Difluorophenyl)-2-hydroxy-3-(1H-1,2,4-triazol-1-yl)propyl]-4-{4-[4-(4-methoxyphenyl)-1-piperazinyl]phenyl}-3-(2H,4H)-1,2,4-triazolone]",183 to 186 °C,0.80,1.56,0.40,<0.02,0.05,<0.02,0.10,3.12,< 0.02 µg/mL,6.25,0.10,0.40
"O=c1n(-c2ccc(N3CCN(c4ccc(F)c(Cl)c4)CC3)cc2)cnn1CC(O)(Cn1cncn1)c1ccc(F)cc1F (stereo not drawn) [Compound 53, 2-[2-(2,4-Difluorophenyl)-2-hydroxy-3-(1H-1,2,4-triazol-1-yl)propyl]-4-{4-[4-(3-chloro-4-fluorophenyl)-1-piperazinyl]phenyl}-3-(2H,4H)-1,2,4-triazolone]",182 to 185 °C,0.50,0.50,0.12,<0.03,0.06,<0.03,<0.03,<0.03,< 0.03 µg/mL,4.00,<0.03,<0.03
"O=c1n(-c2ccc(N3CCN(c4ccc(Cl)cc4)CC3)cc2)cnn1CC(O)(Cn1cncn1)c1ccc(F)cc1F (stereo not drawn) [Compound 47, 2-[2-(2,4-Difluorophenyl)-2-hydroxy-3-(1H-1,2,4-triazol-1-yl)propyl]-4-{4-[4-(4-chlorophenyl)-1-piperazinyl]phenyl}-3-(2H,4H)-1,2,4-triazolone]",207 to 208 °C,3.12,1.56,1.56,<0.02,0.20,<0.02,0.20,<0.02,0.05 µg/mL,3.12,<0.02,0.40
"Cc1ccc(N2CCN(c3ccc(-n4cnn(CC(O)(Cn5cncn5)c5ccc(F)cc5F)c4=O)cc3)CC2)cc1Cl (stereo not drawn) [Compound 49, 2-[2-(2,4-Difluorophenyl)-2-hydroxy-3-(1H-1,2,4-triazol-1-yl)propyl]-4-{4-[4-(3-chloro-4-methylphenyl)-1-piperazinyl]phenyl}-3-(2H,4H)-1,2,4-triazolone]",189 to 201 °C,0.25,0.25,0.06,<0.03,<0.03,<0.03,<0.03,<0.03,< 0.03 µg/mL,4.00,<0.03,<0.03
"O=c1n(-c2ccc(N3CCN(c4ccc([N+](=O)[O-])cc4[N+](=O)[O-])CC3)cc2)cnn1CC(O)(Cn1cncn1)c1ccc(F)cc1F (stereo not drawn) [Compound 40, 2-[2-(2,4-Difluorophenyl)-2-hydroxy-3-(1H-1,2,4-triazol-1-yl)propyl]-4-{4-[4-(2,4-dinitrophenyl)-1-piperazinyl]phenyl}-3-(2H,4H)-1,2,4-triazolone]",120 to 123 °C,0.80,6.25,1.56,0.05,0.40,<0.02,0.40,1.56,0.05 µg/mL,1.56,0.05,0.20
"Cc1ccc(Cl)cc1N1CCN(c2ccc(-n3cnn(CC(O)(Cn4cncn4)c4ccc(F)cc4F)c3=O)cc2)CC1 (stereo not drawn) [Compound 48, 2-[2-(2,4-Difluorophenyl)-2-hydroxy-3-(1H-1,2,4-triazol-1-yl)propyl]-4-{4-[4-(5-chloro-2-methylphenyl)-1-piperazinyl]phenyl}-3-(2H,4H)-1,2,4-triazolone]",82 to 87 °C,1.00,1.00,0.50,0.12,0.50,<0.03,0.50,<0.03,0.25 µg/mL,>16,<0.03,0.06
